Data reported in patent US11998610B2, “Conjugates and methods of using the same” (Flagship Pioneering Innovations V, Inc., priority 2018, dated 2024).

How the values were obtained:
[1] = Stability of conjugates in Simulated Gastric Fluid (SGF); format: in vitro ADME; details: simulated gastric fluid pH 1.6 with pepsin, 1 μM, 37° C.
Experimental: Assay 1. Stability of conjugates in Simulated Gastric Fluid (SGF). This assay was used to assess the stability of a conjugate in a stomach. Medium was prepared by dissolving 2 g of sodium chloride in 0.6 L in ultrapure water (MilliQ®, Millipore Sigma, Darmstadt, Germany). The pH was adjusted to 1.6 with 1N hydrochloric acid, and the volume was then adjusted to 1 L with purified water. 60 mg FaSSIF powder (Biorelevant™, London, UK) were dissolved in 500 mL buffer (above). Pepsin was added (0.1 mg/mL) (Millipore Sigma, Darmstadt, Germany), and the solution was stirred. The resulting SGF media were used fresh for each experiment. Test compounds were dissolved in DMSO stock to 1 mM. An aliquot of the DMSO stock solution was removed and diluted in the SGF Media in 15 mL falcon tubes to generate a total compound concentration of 1 μM. A 1 mL aliquot was immediately removed and diluted once with 1 volume of acetonitrile for T0 timepoint. The mixture was sealed and mixed at 37° C. in an incubator. Aliquots (1 mL) were removed at regular intervals and immediately quenched by the addition of 1 volume of acetonitrile. The resulting samples were analyzed by LC/MS to determine degradation rates in SGF.

[2] = In vitro Colonic Material Stability Assay; format: in vitro ADME; details: colonic material slurry, anaerobic, 1 or 10 μM, 24 h
Experimental: Assay 3 In vitro Colonic Material Stability Assay. This assay was used to assess the stability of an acylated active agent in a large intestine. All experiments were performed in an anaerobic chamber containing 90% nitrogen, 5% hydrogen and 5% carbon dioxide. Colonic material was resuspended as a slurry (15% w/v final concentration) in pre-reduced, anaerobically sterilized dilution blanks (Anaerobe Systems AS-908). The colonic material was then inoculated into 96 well plates containing YCFAC media (Anaerobe Systems AS-680) or other suitable media (6.7 μL slurry into 1 mL total media). Compounds or groups of compounds were added to each individual well to reach a final analyte concentration of 1 or 10 μM, and the material was mixed by pipetting. Sample was removed after set timepoints (0, 120, 240, 480, 1440, 2880 minutes after initiation of the assay), quenched with acetonitrile containing internal standard, and analyzed by LC/MS.

E. coli BL21(DE3) = experiment: Cell-based assay with ClbP with LCMS, ClbP negative strain; details: 10 μM compound, 37° C., 20 h
Experimental: (§1) This example is representative of the methods described in Example 97. ClbP was tested for its ability to activate compounds. […] Each of these three strains was struck out onto an appropriate solid media such as LB agar or BHI agar. The bacteria were then grown aerobically overnight at 37° C.
(§2) A single colony was isolated from the plate and inoculated into 10 mL LB. The liquid cultures were grown overnight aerobically at 37° C. with rocking on a nutator.
(§3) The saturated E. coli cultures were transferred into a biosafety cabinet. 5 μL of each culture was inoculated into fresh LB broth (200 μL total, 1:40 (v/v) dilution of the overnight culture), and the tested compound was added to a final concentration of 10 μM. To establish the native stability of the compound in media alone, the compound was also added to uninoculated media at a final concentration of 10 μM. Each compound was tested in duplicate with each strain or the media-alone incubation. The plate was sealed and incubated aerobically on a nutator at 37° C. for 20 h.
(§4) After 20 h, the reactions were stopped by addition of 200 μL acetonitrile. The contents of each well were mixed, and then the plate was centrifuged (4,000 rpm, 10 min). The plate was diluted serially to a final dilution of 1:100 first with Acetonitrile (10× dilution) and then with (4:1) Mobile Phase A-20 mM ammonium formate+water:Mobile Phase B-Isopropanol:Methanol:Water (4:4:2)+20 mM ammonium formate (10× dilution).
(§5) The amount of each remaining parent compound in each incubation was quantified by LC-MS analysis, with multiple-reaction monitoring targeting transitions specific to each parent compound.
(§6) The amount of compound present in the media-alone condition was normalized to 100%. The amount of parent compound present in the reaction with the ClbP-encoding E. coli (E. coli CFT073 ATCC 700928 and/or E. coli Nissle 1917) was compared to the amount present in the media-alone and expressed as a percent. Likewise, the amount of parent compound present in the reaction with the negative control E. coli BL21(DE3) was compared to the amount present in the media-alone and expressed as a percent.
(§7) In an ideal case, the amount of residual starting material in the reaction(s) with ClbP-encoding E. coli was <25% of the amount in the E. coli BL21(DE3) and media-alone conditions. In an acceptable case, the amount of residual starting material in the reaction(s) with ClbP-encoding E. coli was 25-75% of the amount in the E. coli BL21(DE3) and media-alone conditions. In a non-preferred case, the amount of residual starting material in the reaction(s) with ClbP-encoding E. coli was >75% of the amount in the E. coli BL21(DE3) and media-alone conditions.

[3] = test system: E. coli CFT073 ATCC 700928 and/or E. coli Nissle 1917; experiment: Cell-based assay with ClbP with LCMS, ClbP positive strain; details: ClbP-encoding E. coli, 10 μM compound, 37° C., 20 h
Experimental: as §1, §2, §3, §4, §5, §6, §7

Row | Structure (SMILES) | Assay 1 (SGF) (% Remaining @ 1 hours) [1] | Assay 3 (% Remaining at 24 h) [2] | % Remaining in ClbP Negative Relative to Media-Only (E. coli BL21(DE3)) | % Remaining in ClbP Positve Relative to Media-Only [3]
1 | CCCCCCCCCCCCCC(=O)N[C@H](CC(N)=O)C(=O)NCCC(C)(C)C(=O)OC [Example 34, Methyl (R)-4-(4-amino-4-oxo-2-tetradecanamidobutanamido)-2,2-dimethylbutanoate] | C (>75% of the tested compound remaining) | C (>75% of the tested compound remaining) | − (>75% compound remaining in the 20 μM WT ClbP reaction relative to the no-enzyme control) | + (between 25-75% compound remaining in the 20 μM WT ClbP reaction relative to the no-enzyme control)
2 | CCCCCCCC(=O)N[C@H](CC(N)=O)C(=O)N[C@@H](C)CNC(=O)OC [Example 45, Methyl ((S)-2-((R)-4-amino-2-octanamido-4-oxobutanamido)propyl)carbamate] | – | B (25-75% of the tested compound remaining) | − (>75% compound remaining in the 20 μM WT ClbP reaction relative to the no-enzyme control) | + (between 25-75% compound remaining in the 20 μM WT ClbP reaction relative to the no-enzyme control)
3 | CCCCCCCCCCCCOC(=O)N[C@H](CC(N)=O)C(=O)N[C@@H](C)C(=O)OC [Example 59, Methyl ((dodecyloxy)carbonyl)-D-asparaginyl-L-alaninate] | – | C (>75% of the tested compound remaining) | ++ (<25% compound remaining in the 20 μM WT ClbP reaction relative to the control) | ++ (<25% compound remaining in the 20 μM WT ClbP reaction relative to the control)
4 | COC(=O)[C@H](C)NC(=O)[C@@H](CC(N)=O)NC(=O)c1cn(C2CC2)c2cc(N3CCNCC3)c(F)cc2c1=O [Example 19, Methyl (1-cyclopropyl-6-fluoro-4-oxo-7-(piperazin-1-yl)-1,4-dihydroquinoline-3-carbonyl)-D-asparaginyl-L-alaninate] | – | A (<25% of the tested compound remaining) | − (>75% compound remaining in the 20 μM WT ClbP reaction relative to the no-enzyme control) | + (between 25-75% compound remaining in the 20 μM WT ClbP reaction relative to the no-enzyme control)
5 | CCCCCCOC(=O)N[C@H](CC(N)=O)C(=O)N[C@@H](C)C(=O)OC [Example 52, Methyl ((hexyloxy)carbonyl)-D-asparaginyl-L-alaninate] | – | B (25-75% of the tested compound remaining) | ++ (<25% compound remaining in the 20 μM WT ClbP reaction relative to the control) | ++ (<25% compound remaining in the 20 μM WT ClbP reaction relative to the control)
6 | CCCC(=O)N[C@H](CC(N)=O)C(=O)N[C@@H](C)CCC(=O)Oc1ccccc1 [Example 25, Phenyl (S)-4-((R)-4-amino-2-butyramido-4-oxobutanamido)pentanoate] | C (>75% of the tested compound remaining) | B (25-75% of the tested compound remaining) | − (>75% compound remaining in the 20 μM WT ClbP reaction relative to the no-enzyme control) | + (between 25-75% compound remaining in the 20 μM WT ClbP reaction relative to the no-enzyme control)
7 | CCCCCCCCCCCCCC(=O)N[C@H](CC(N)=O)C(=O)N[C@@H](C)CCC(=O)Oc1ccc2nc3c(c(CC)c2c1)Cn1c-3cc2c(c1=O)COC(=O)[C@]2(O)CC [Example 24, (S)-4,11-diethyl-4-hydroxy-3,14-dioxo-3,4,12,14-tetrahydro-1H-pyrano[3′,4′:6,7]indolizino[1,2-b]quinolin-9-yl (S)-4-((R)-4-amino-4-oxo-2-tetradecanamidobutanamido)pentanoate] | – | – | − (>75% compound remaining in the 20 μM WT ClbP reaction relative to the no-enzyme control) | + (between 25-75% compound remaining in the 20 μM WT ClbP reaction relative to the no-enzyme control)
8 | CCCCCCCC(=O)N[C@H](CC(N)=O)C(=O)N[C@@H](C)CCC(=O)OC [Example 42, Methyl (S)-4-((R)-4-amino-2-octanamido-4-oxobutanamido)pentanoate] | – | C (>75% of the tested compound remaining) | − (>75% compound remaining in the 20 μM WT ClbP reaction relative to the no-enzyme control) | − (>75% compound remaining in the 20 μM WT ClbP reaction relative to the no-enzyme control)
9 | CCCCCCCCCCCCCC(=O)N[C@H](CC(N)=O)C(=O)NCCN(C)C(=O)OC [Example 30, Methyl (R)-(2-(4-amino-4-oxo-2-tetradecanamidobutanamido)ethyl)(methyl)carbamate] | – | – | − (>75% compound remaining in the 20 μM WT ClbP reaction relative to the no-enzyme control) | + (between 25-75% compound remaining in the 20 μM WT ClbP reaction relative to the no-enzyme control)
10 | CCCCCCCC(=O)N[C@H](CC(N)=O)C(=O)NCCC(C)(C)C(=O)Oc1ccc2c(C)cc(=O)oc2c1 [Example 72A, 4-methyl-2-oxo-2H-chromen-7-yl (R)-4-(4-amino-2-octanamido-4-oxobutanamido)-2,2-dimethylbutanoate] | – | – | + (between 25-75% compound remaining in the 20 μM WT ClbP reaction relative to the no-enzyme control) | + (between 25-75% compound remaining in the 20 μM WT ClbP reaction relative to the no-enzyme control)
11 | CCCC(=O)N[C@H](CC(N)=O)C(=O)N[C@@H](C)CCC(=O)Oc1ccc2nc3c(c(CC)c2c1)Cn1c-3cc2c(c1=O)COC(=O)[C@]2(O)CC [Example 58, (S)-4,11-diethyl-4-hydroxy-3,14-dioxo-3,4,12,14-tetrahydro-1H-pyrano[3′,4′:6,7]indolizino[1,2-b]quinolin-9-yl (S)-4-((R)-4-amino-2-butyramido-4-oxobutanamido)pentanoate] | – | – | + (between 25-75% compound remaining in the 20 μM WT ClbP reaction relative to the no-enzyme control) | ++ (<25% compound remaining in the 20 μM WT ClbP reaction relative to the control)
12 | CCCCCCCCCCCCNC(=O)N[C@H](CC(N)=O)C(=O)N[C@@H](C)C(=O)OC [Example 60, Methyl (dodecylcarbamoyl)-D-asparaginyl-L-alaninate] | – | C (>75% of the tested compound remaining) | + (between 25-75% compound remaining in the 20 μM WT ClbP reaction relative to the no-enzyme control) | + (between 25-75% compound remaining in the 20 μM WT ClbP reaction relative to the no-enzyme control)
